Test results: article PMC6013791 (Chemical Science, 2016)
Where a SMILES comes first, the peptide text is derived from it. Bridges are numbered along the chain shown (N, C = ends). [ ]: non-standard residue; d: D form. hArg = N=C(N)NCCCC[C@H](N)C(=O)O; Mpa = O=C(O)CCS

Assays:
CXCR4 [1] = biological target: T1, CXCR4 (Homo sapiens, UniProt P61073); assay: Ligand efficiency from ChEMBL19 CXCR4 ligand data; conditions: LE = 1.4pAffinity/nheavy_atoms, from ChEMBL19 CXCR4 data ref 28
CXCR4 [2] = biological target: T1, CXCR4; conditions: cited from earlier work
CXCR4 [3] = biological target: T1, CXCR4; assay: CXCR4 arrestin assay; assay type: cell-based; conditions: 30 μM, exploitive and hit expansion iterations

T1 sequence (P61073 whole entry): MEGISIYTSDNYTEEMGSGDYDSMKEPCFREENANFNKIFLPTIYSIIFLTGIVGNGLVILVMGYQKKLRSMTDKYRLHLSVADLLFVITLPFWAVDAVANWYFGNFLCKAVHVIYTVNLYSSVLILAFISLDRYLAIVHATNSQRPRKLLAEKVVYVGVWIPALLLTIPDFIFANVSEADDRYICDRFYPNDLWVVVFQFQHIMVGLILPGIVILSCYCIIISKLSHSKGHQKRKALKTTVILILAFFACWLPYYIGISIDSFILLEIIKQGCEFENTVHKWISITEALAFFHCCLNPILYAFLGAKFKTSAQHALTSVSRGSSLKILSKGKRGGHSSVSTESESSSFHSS

SMILES | ligand efficiency (LE) (CXCR4 [1]) | further results
c1ccc(NCc2ccc(CNc3ccccn3)cc2)nc1 [ChEMBL237830] | 0.56 | –
c1cc2nc(c1)CCNCCN(Cc1ccc(CN3CCNCCc4cccc(n4)CCNCC3)cc1)CCNCC2 [CHEMBL1202231] | 0.32 | –
C[C@H](NC(=O)[C@H](CCCN=C(N)N)NC(=O)c1ccc(CNCc2ccccn2)cc1)c1cccc2ccccc12 [KRH-1636] | – | EC50 (CXCR4 [2]): 18 nM
N=C(N)NCCCC[C@@H]1NC(=O)CCSSC[C@@H](C(N)=O)NC(=O)[C@@H]2CCCN2C(=O)[C@H](Cc2c[nH]c3ccccc23)NC(=O)[C@H](CC(=O)O)NC(=O)CNC1=O [integrilin] ([Mpa][hArg]GDWPC-NH2; disulfide 1-7 (inferred)) | – | activity in the arrestin assay (CXCR4 [3]): lack of activity
